The values that follow come from ChEMBL document CHEMBL1155243, “In vitro erythrocytic uptake studies of artemisinin and selected derivatives using LC-MS and 2D-QSAR analysis of uptake in parasitized erythrocytes” (Bioorg Med Chem, 2009).

Common to all, as to details: erythrocyte
A short description of data set [1]: Drug uptake in human type-A RBC at 3.55 uM after 2 hrs by LC-MS analysis. It counts as ADME, cell-based.
Data set [2] is described as follows: Drug uptake in human type-A erythrocytes infected with Plasmodium falciparum D6 at 3.55 uM after 2 hrs by LC-MS analysis. The data set is classed as ADME, cell-based.
Data set [3] is described as follows: Toxicity in human type-A RBC assessed as hematocrit at 3.55 uM after 2 hrs. It counts as cell-based.

On to `C[C@@H]1[C@@H](OC(=O)Nc2ccccc2)C[C@H]2[C@@H](C)C(=O)O[C@@H]3O[C@]4(C)CC[C@@H]1[C@]32OO4`, for which the Drug uptake in data set [1] worked out at 32.18%; in data set [2], 51.04%. In addition, the Activity in data set [3] is 33%.

In the case of `C[C@@H]1CC[C@H]2[C@@H](CN3C(=O)CSC3=O)C(=O)O[C@@H]3O[C@]4(C)CC[C@@H]1[C@]32OO4`, the Drug uptake in data set [1] is recorded as 33.94%; in data set [2], 57.69%. Besides, the Activity in data set [3] is on record as 33%.

As to `C[C@@H]1CC[C@H]2[C@@H](CN3C(=O)CCC3=O)C(=O)O[C@@H]3O[C@]4(C)CC[C@@H]1[C@]32OO4`, the values for the Drug uptake in data set [1] and in data set [2] were 36.57% and 66.06%, respectively. In addition, the Activity in data set [3] is 33%.

As for `CCCC[C@H]1C(=O)O[C@@H]2O[C@]3(CC)CC[C@H]4[C@H](C)CC[C@@H]1[C@@]24OO3`, the Drug uptake in data set [1] stood at 39.11%; in data set [2], 62.5%. Further, the Activity in data set [3] turned out to be 33%.

Regarding `CCCCCCCCCCCCCC[C@H]1C(=O)O[C@@H]2O[C@]3(C)CC[C@H]4[C@H](C)CC[C@@H]1[C@@]24O3`, the Drug uptake in data set [1] amounted to 45.09%; in data set [2], 73%. The Activity in data set [3] is reported as 33%.

As for `C[C@@H]1[C@@H](OC(=O)NC2CC2c2ccccc2)C[C@H]2[C@@H](C)C(=O)O[C@@H]3O[C@]4(C)CC[C@@H]1[C@]32OO4` (some centres undefined), the values for the Drug uptake in data set [1] and in data set [2] were 32.31% and 51.63%, respectively. For the same compound, the Activity in data set [3] is reported as 33%.

With `C[C@@H]1[C@@H](O)C[C@H]2[C@@H](C)C(=O)O[C@@H]3O[C@]4(C)CC[C@@H]1[C@]32OO4`, the Drug uptake in data set [1] was determined as 33.1%; in data set [2] it was 53.9%. Also, in data set [3], the Activity came to 33%.

With `C[C@@H]1CC[C@H]2[C@@H](CCCc3ccc(O)cc3)C(=O)O[C@@H]3O[C@]4(C)CC[C@@H]1[C@]32OO4.Cl`, the Drug uptake in data set [1] was 39.01%; in data set [2] it was 63.09%. In addition, in data set [3], the Activity stood at 33%.

On to `C[C@@H]1CC[C@H]2[C@@H](C)C(=O)O[C@@H]3O[C@@]4(C)CC[C@@H]1[C@]32OO4` [ARTEMISININ], for which the figures for the Drug uptake in data set [1] and in data set [2] were 34.68% and 61.07%, respectively. The Activity in data set [3] was 33%.

`CC(C)CN1C(=O)C[C@@H]2CC[C@@H](C)[C@@H]3CC[C@]4(C)OO[C@@]23[C@H]1O4`: the Drug uptake was found to be 35.17% in data set [1] and 61.51% in data set [2]. Besides, the Activity in data set [3] turned out to be 33%.

For `C[C@@H]1CC[C@H]2CC(=O)N(CCc3ccccc3)[C@@H]3O[C@]4(C)CC[C@@H]1[C@@]23OO4`, the Drug uptake in data set [1] turned out to be 38.43%; in data set [2] it was 61.8%. Also, the Activity in data set [3] was determined as 33%.

Take `C[C@@H]1CC[C@H]2[C@@H](CCCc3cc(F)cc(F)c3)CO[C@@H]3O[C@]4(C)CC[C@@H]1[C@]32OO4`: the Drug uptake turned out to be 40.01% in data set [1] and 70.91% in data set [2]. In data set [3], the Activity is given as 33%.

Turning to `C[C@@H]1CC[C@H]2[C@@H](CCCc3cccc(Cl)c3)[C@H](O)O[C@@H]3O[C@]4(C)CC[C@@H]1[C@]32OO4`, the figures for the Drug uptake in data set [1] and in data set [2] were 40.13% and 71.21%, respectively. Also, the Activity in data set [3] stood at 33%.

On to `C[C@@H]1[C@@H](OC(=O)Nc2cccc3ccccc23)C[C@H]2[C@@H](C)C(=O)O[C@@H]3O[C@]4(C)CC[C@@H]1[C@]32OO4`, for which the Drug uptake is reported as 32.63% in data set [1] and 51.68% in data set [2]. In data set [3], the Activity was 33%.

On to `C[C@@H]1CC[C@H]2[C@@H](CCCc3cc(C(F)(F)F)cc(C(F)(F)F)c3)C(=O)O[C@@H]3O[C@]4(C)CC[C@@H]1[C@]32OO4`, for which the Drug uptake in data set [1] is 41.07%; in data set [2], 72.09%. Further, the Activity in data set [3] amounted to 33%.

As for `C[C@@H]1CC[C@H]2[C@@H](CCCc3cc(C(F)(F)F)cc(C(F)(F)F)c3)CO[C@@H]3O[C@]4(C)CC[C@@H]1[C@]32OO4`, the Drug uptake in data set [1] is 42.11%; in data set [2], 72%. The Activity in data set [3] stood at 33%.

With `C[C@@H]1CC[C@H]2[C@@H](CCCc3cc(C(F)(F)F)cc(C(F)(F)F)c3)[C@H](O)O[C@@H]3O[C@]4(C)CC[C@@H]1[C@]32OO4`, the Drug uptake was 40.43% in data set [1] and 71.76% in data set [2]. In addition, in data set [3], the Activity was 33%.

As for `C[C@@H]1CC[C@H]2[C@@H](CCCc3ccc(S(C)(=O)=O)cc3)C(=O)O[C@@H]3O[C@]4(C)CC[C@@H]1[C@]32OO4`, the Drug uptake is 38.53% in data set [1] and 61.9% in data set [2]. Further, the Activity in data set [3] amounted to 33%.

Take `C[C@@H]1CC[C@H]2CC(=O)O[C@@H]3O[C@]4(CCc5ccccc5)CC[C@@H]1[C@@]23OO4`: the Drug uptake in data set [1] was found to be 38.96%; in data set [2], 62.34%. The Activity in data set [3] came to 33%.

As to `C[C@@H]1CC[C@H]2[C@@H](CCCc3ccc(N(C)C)cc3)C(=O)O[C@@H]3O[C@]4(C)CC[C@@H]1[C@]32OO4.Cl`, the results for the Drug uptake in data set [1] and in data set [2] were 32.82% and 51.92%, respectively. For the same compound, the Activity in data set [3] is on record as 33%.

Take `C[C@@H]1CC[C@H]2[C@@H](CC(=O)O)C(=O)O[C@@H]3O[C@]4(C)CC[C@@H]1[C@]32OO4`: the Drug uptake was 33.92% in data set [1] and 54.23% in data set [2]. In data set [3], the Activity came to 33%.

In the case of `C[C@@H]1CC[C@H]2CC(=O)O[C@@H]3O[C@]4(CC(=O)O)CC[C@@H]1[C@@]23OO4`, the Drug uptake in data set [1] came out at 34.03%; in data set [2], 54.51%. Besides, the Activity in data set [3] was found to be 33%.

With `C[C@H]1C(=O)O[C@@H]2O[C@@]3(C)CC[C@@H]4[C@@]2(OO3)[C@H]1CC[C@]4(C)O`, the Drug uptake in data set [1] amounted to 32.99%; in data set [2], 53.89%. Further, in data set [3], the Activity turned out to be 33%.
